In patent US4079141A, “Azabicycloalkanes” (priority 1976, dated 1978):
Read-outs that look alike come from different tables or passages of the source.

Columns and labels:
[1] = system: mania (increased motor activity) produced in mice by morphine; assay: Morphine antagonist test: inhibition of the characteristic mania (increased motor activity) produced in mice by morphine; format: in vivo; conditions: for % Inhibition (percent of pairs in which the mania is inhibited): subcutaneous, concurrently with 25 mg/kg morphine sulfate, 10 pairs of mice
Procedure: A sample of 25 mg/kg of body weight of morphine sulfate and the compound of the invention to be tested are concurrently administered subcutaneously to 10 pairs of mice. The mice are then observed for inhibition of the characteristic mania (increased motor activity) normally produced in mice by morphine. Results are outlined in Table II and expressed as percent of pairs in which the mania is inhibited at a given dose level.

[2] = system: 2-phenyl-1,4-quinone induced writhing; assay: 2-phenyl-1,4-quinone induced writhing assay in mice (analgesia); format: in vivo; conditions: Mus musculus, sc, read-out: ED50 (inhibition of writhing)
Description: Compounds of the invention are useful as analgesic agents due to their ability to alleviate pain in mammals. […] Exptl. Biol. Med., 95, 729 (1957)].

[3] = 0.25 h, mice, subcutaneous, drug administration time 15 minutes
[4] = 0.5 h, mice, subcutaneous, drug administration time 30 minutes

| Structure (SMILES) | ED50 [2, 3] [mg/kg] | ED50 [2, 4] [mg/kg] | % Inhibition (percent of pairs in which the mania is inhibited) ([1]; dose 50 mg/kg) [%] | other results |
| --- | --- | --- | --- | --- |
| Oc1cccc(C23CCC(C2)N(Cc2ccco2)CC3)c1 (stereo not shown) [2-(2-furylmethyl)-5-(3-hydroxyphenyl)-2-azabicyclo[3.2.1]octane.HBr] | 22 |  |  | % Inhibition (percent of pairs in which the mania is inhibited) ([1]; dose 25 mg/kg): 100% |
| O=C(CCCN1CCC2(c3cccc(O)c3)CCC1C2)c1ccc(F)cc1 (stereo not shown) [2-[3-(4-fluorobenzoyl)propyl]-5-(3-hydroxyphenyl)-2-azabicyclo[3.2.1]octane.HBr] |  |  |  | % Inhibition (percent of pairs in which the mania is inhibited) ([1]; dose 10 mg/kg): 100% |
| O=C(CCCN1CCC2(c3cccc(O)c3)CCC1C2)c1ccc(F)cc1 (stereo not shown) [2-[3-(4-fluorobenzoyl)propyl]-5-(3-hydroxyphenyl)-2-azabicyclo[3.2.1]octane] |  | 0.35 |  |  |
| COc1cccc(C23CCC(C2)N(CCCC(=O)c2ccc(F)cc2)CC3)c1 (stereo not shown) [2-[3-(4-fluorobenzoyl)propyl]-5-(3-methoxyphenyl)-2-azabicyclo[3.2.1]octane.HBr] |  |  |  | % Inhibition (percent of pairs in which the mania is inhibited) ([1]; dose 10 mg/kg): 100%; ED50 ([2]; 1 h, mice, subcutaneous, drug administration time 60 minutes): 0.7 mg/kg |
| Oc1cccc(C23CCC(C2)N(CC2CC2)CC3)c1 (stereo not shown) [2-cyclopropylmethyl-5-(3-hydroxyphenyl)-2-azabicyclo[3.2.1]octane.HBr] |  | 6 |  | % Inhibition (percent of pairs in which the mania is inhibited) ([1]; dose 25 mg/kg): 100% |
| CCCCCN1CCC2(c3cccc(O)c3)CCC1C2 (stereo not shown) [2-n-amyl-5-(3-hydroxyphenyl)-2-azabicyclo[3.2.1]octane.HBr] |  | 11 |  | % Inhibition (percent of pairs in which the mania is inhibited) ([1]; dose 3 mg/kg): 50%; % Inhibition (percent of pairs in which the mania is inhibited) ([1]; dose 25 mg/kg): 100% |
| CCCCCN1CCC2(c3cccc(OC)c3)CCC1C2 (stereo not shown) [2-n-amyl-5-(3-methoxyphenyl)-2-azabicyclo[3.2.1]octane.HBr] |  | 5 |  | % Inhibition (percent of pairs in which the mania is inhibited) ([1]; dose 30 mg/kg): 100% |
| CCCCN1CCC2(c3cccc(O)c3)CCC1C2 (stereo not shown) [2-n-butyl-5-(3-hydroxyphenyl)-2-azabicyclo[3.2.1]octane.HBr] | 9 |  |  | % Inhibition (percent of pairs in which the mania is inhibited) ([1]; dose 25 mg/kg): 100% |
| CCCCN1CCC2(c3cccc(OC)c3)CCC1C2 (stereo not shown) [2-n-butyl-5-(3-methoxyphenyl)-2-azabicyclo[3.2.1]octane.HBr] |  | 4.6 |  | % Inhibition (percent of pairs in which the mania is inhibited) ([1]; dose 25 mg/kg): 100% |
| CC(=O)Oc1cccc(C23CCC(C2)N(C)CC3)c1 (stereo not shown) [5-(3-acetoxyphenyl)-2-methyl-2-azabicyclo[3.2.1]octane.HBr] |  |  | 100 |  |
| CC(=O)Oc1cccc(C23CCC(C2)N(CCc2ccccc2)CC3)c1 (stereo not shown) [5-(3-acetoxyphenyl)-2-phenethyl-2-azabicyclo[3.2.1]octane.HBr] |  | 6.1 |  | % Inhibition (percent of pairs in which the mania is inhibited) ([1]; dose 10 mg/kg): 70% |
| CN1CCC2(c3cccc(O)c3)CCC1C2 (stereo not shown) [5-(3-hydroxyphenyl)-2-methyl-2-azabicyclo[3.2.1]octane.HBr] |  | 9.5 | 80 |  |
| CCCN1CCC2(c3cccc(O)c3)CCC1C2 (stereo not shown) [5-(3-hydroxyphenyl)-2-n-propyl-2-azabicyclo[3.2.1]octane.HBr] | 8.9 |  | 100 |  |
| Oc1cccc(C23CCC(C2)N(CCc2ccccc2)CC3)c1 (stereo not shown) [5-(3-hydroxyphenyl)-2-phenethyl-2-azabicyclo[3.2.1]octane.HBr] | 0.7 |  | 100 | % Inhibition (percent of pairs in which the mania is inhibited) ([1]; dose 1 mg/kg): 50% |
| COc1cccc(C23CCC(C2)N(C)CC3)c1 (stereo not shown) [5-(3-methoxyphenyl)-2-methyl-2-azabicyclo[3.2.1]octane.HBr] |  | 7.9 | 50 |  |
| CCCN1CCC2(c3cccc(OC)c3)CCC1C2 (stereo not shown) [5-(3-methoxyphenyl)-2-n-propyl-2-azabicyclo[3.2.1]octane.HBr] | 7.4 |  | 100 | % Inhibition (percent of pairs in which the mania is inhibited) ([1]; dose 10 mg/kg): 50% |
| COc1cccc(C23CCC(C2)N(CCc2ccccc2)CC3)c1 (stereo not shown) [5-(3-methoxyphenyl)-2-phenethyl-2-azabicyclo[3.2.1]octane.HBr] |  | 5.9 |  |  |
| CN1CC[C@]23c4c5ccc(O)c4O[C@H]2[C@@H](O)C=C[C@H]3[C@H]1C5 [morphine, reference compound] |  |  |  | ED50 ([2]; 0.5 h): 0.47 mg/kg |
| CC(C)=CCN1CCC2(C)c3cc(O)ccc3CC1C2C (stereo not shown) [pentazocine, reference compound] | 1.5 | 4.8 |  | ED50 ([1]; Mus musculus, sc, mice, concurrently with morphine sulfate, for comparison, read-out: dose exhibiting a 50% inhibition (of morphine mania)): > 50 mg/kg |
